Source: patent US5162336A, “Tetrahydro-pyrido-indoles as cholecystokinin and gastrin antagonists” (Rhone-Poulenc Rorer Pharmaceuticals Inc., priority 1990, dated 1992)

Target: T1, CCK-A receptor (Rattus norvegicus, UniProt P30551)
T1 construct: from tissue; host or cells: pancreas membranes of Sprague-Dawley rat
T1 sequence (P30551 1-444): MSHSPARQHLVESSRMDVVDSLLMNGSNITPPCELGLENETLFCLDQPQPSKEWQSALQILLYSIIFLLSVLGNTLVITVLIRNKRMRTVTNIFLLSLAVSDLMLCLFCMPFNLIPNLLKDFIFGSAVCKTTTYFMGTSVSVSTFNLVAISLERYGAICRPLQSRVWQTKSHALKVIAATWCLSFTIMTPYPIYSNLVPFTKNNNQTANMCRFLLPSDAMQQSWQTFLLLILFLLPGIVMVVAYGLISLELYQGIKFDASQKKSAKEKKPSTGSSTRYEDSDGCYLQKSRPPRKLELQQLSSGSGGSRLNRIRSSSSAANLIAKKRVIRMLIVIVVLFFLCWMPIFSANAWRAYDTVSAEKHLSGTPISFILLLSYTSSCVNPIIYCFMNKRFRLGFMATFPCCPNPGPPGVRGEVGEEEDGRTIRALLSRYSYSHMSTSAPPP
Experiment: CCK-A receptor binding assay (displacement of 3H-L-364,718 from rat pancreas membranes)
Parameters: species or system Sprague-Dawley rat
Conditions: 3H-L-364,718 0.2 nM, 37° C., 30 min, read-out: In vitro Binding Data IC50 CCK
Experimental: Washer Buffer (for use with Brandel Cell Harvester):
30 liters of 50 mM Tris, ph 7.7: Dissolve 181.7 g. Tris base in 4 1. deionized water at room temperature. Adjust pH to 7.7 with 6 N HCl and Q.S. to 30 1.
50 mM Tris-Cl, 5 mM MgCl2, 5 mM dithio-thretiol, 0.14 mg/ml bacitracin, and 2 mg/ml bovine serum albumin.
1 liter of 5X stock buffer:
30.28 g. Tris base per 800 ml D.I. water 5.09 g. MgCl2 6 H2 O, pH to 7.7 at room temperature with 6N HCl and Q.S. 1 liter, store at 4° C.
250 ml working buffer kept on ice:
50 ml of 5X stock buffer 0.1928 g. dithiothretiol (5 mM), 35 mg bacitracin (0.14 mg/ml), and 0.5 g. BSA (2mg/ml).
Unlabeled L-364,718(nonpeptide ligand):
Unlabeled L-364,718 (300 nM final concentration) is used to define nonspecific binding. A 3 mM solution is made in absolute ethanol and stored in a scintillation vial at -70° C. Aliquots are diluted 100-fold in the assay.
A Sprague-Dawley rat is sacrificed by asphyxiation with carbon dioxide and the pancreas removed. The tissue is immersed in cold wash buffer and carefully trimmed of fat, connective tissue, blood vessels, blotted and weighed. The tissue is homogenized in a Sorvall SS-34 centrifuge tube in 50 volumes of wash buffer using a Polytron at setting 7 for 15 seconds. The tissue is centrifuged (Sorvall SS-34) at 19,000 rpm for 10 min. The supernatant is poured off and the pellet resuspended in sufficient buffer to obtain a contraction of 40 mg tissue wet weight/ml. Separate aliquots (2,3ml) are placed in each of 8 centrifuge tubes and centrifuged as before. The supernatants are poured off and the pellets stored at -70° C. Stored pellets are sufficient for the assay of 160 tubes and are stable for 1-2 months.
During the assay the stored membranes are resuspended in 40 ml of assay buffer by scraping the pellet off the wall of the centrifuge tube and washing it into a teflon-glass homogenizer. Membranes are resuspended by 5 passes with the teflon pestle and the membranes stored on ice until ready for use.
Preparation of Compounds:
Compounds are prepared in DMSO (dimethyl sulfoxide) or in assay buffer. The majority of structures active as CCK antagonists generally require DMSO for complete solubility. Approximately 2-3 mg of compound is weighed directly into a 13×100 mm test tube and sufficient DMSO added to obtain a working stock solution at a concentration 100 fold greater than the highest concentration being tested in the assay. A total of 10 μl of each concentration of drug is added into a final volume of 1 ml to yield a 100 fold dilution of the, working stock solution. Control binding tubes ("totals and nonspecifics") are also treated with 10 μl DMSO.
^3 H-L-364,718 is obtained from New England Nuclear (Cat. #971) and is used as supplied. The final assay concentration of ^3 H-L-364,718 in assay buffer should be 0.2 nM in a final assay volume of 1 ml. ^3 H-L-364,718 (0.2 pmol) is added into the assay in a volume of 25 μl (8 nM working stock solution). The required dilution (usually>1000 fold) is obtained by dividing the working stock concentration into the concentration of the specific lot.
Samples are prepared in triplicate and a "total" (buffer addition) and "nonspecific" (300 nM unlabeled L-364,718) set of tubes included in each set of 24 tubes. The remaining 6 sets of triplicates are used either for screening or IC50 determinations. The order of addition is drugs-DMSO, buffer, unlabeled L-364,718, ^3 H-L-364,718, and to start the assay, membranes.
While tubes are incubating a shaking water bath at 37° C. for 30 min Brandel deposit/dispense filters are presoaked in wash buffer. Following the end of the incubation, sets of 24 tubes are rapidly washed with assay buffer as follows. Assay buffer is added to the incubation tubes to the height of the uppermost cross support in the standard Brandel test tube rack and the contents immediately aspirated. This process is repeated twice more, the filter removed, marked and the next set of 24 tubes processed. […]

IC50 | Structure (SMILES)
25 µM | O=C(Nc1ccccc1C(=O)N1CCCC1)[C@H]1Cc2c([nH]c3ccccc23)CN1C(=O)OCc1ccccc1 [Example 18, pyrrolidine-2-N-[(3R)-2-carbobenzoxy-1,2,3,4-tetrahydro-9H-pyrido-[3,4-b]indole-3-carboxyl]aminobenzamide]
86 µM | CC(C)C[C@H](NC(=O)[C@H]1Cc2c([nH]c3ccccc23)CN1C(=O)Nc1cccc(C(F)(F)F)c1)C(=O)N[C@@H](CC(=O)O)C(N)=O [Example 63]
41 µM | CC(C)C[C@H](NC(=O)[C@H]1Cc2c([nH]c3ccccc23)CN1)C(=O)N[C@@H](CC(=O)OCc1ccccc1)C(N)=O [Example 40]
82 µM | NC(=O)[C@H](CC(=O)O)NC(=O)[C@H]1Cc2c([nH]c3ccccc23)CN1C(=O)c1ccccc1 [Example 8, N-[(3R)-2-benzoyl-1,2,3,4-tetrahydro-9H-pyrido[3,4-b]indole-3-carboxyl]-L-aspartic acid amide]
25 µM | CC(C)C[C@H](NC(=O)[C@H]1Cc2c([nH]c3ccccc23)CN1C(=O)c1ccc2ccccc2c1)C(=O)N[C@@H](CC(=O)O)C(N)=O [Example 10, N-[(3R)-2-(2-naphthoyl)-1,2,3,4-tetrahydro-9H-pyrido[3,4-b]indole-3-carboxyl]-L-leucyl-L-aspartic acid amide]
> 100 µM | Cc1cccc(NC(=O)N2Cc3[nH]c4ccccc4c3C[C@@H]2C(=O)N[C@@H](CC(C)C)C(N)=O)c1 [Example 39, N-[(3R)-2-(3-methylphenylcarbamoyl)-1,2,3,4-tetrahydro-9H-pyrido[3,4-b]indole-3-carboxy]-L-leucinamide]
9 µM | CCOC(=O)c1ccc(NC(=O)[C@H]2Cc3c([nH]c4ccccc34)CN2C(=O)OCc2ccccc2)cc1 [Example 15, ethyl 4-N-[(3R)-2-carbobenzoxy-1,2,3,4-tetrahydro-9H-pyrido[3,4-b]indole-3-carboxyl]aminobenzoate]
34 µM | Cc1cccc(NC(=O)N2Cc3[nH]c4ccccc4c3C[C@@H]2C(=O)NCC(=O)N[C@@H](CC(=O)O)C(N)=O)c1 [Example 56, N-[(3R)-2-(3-methylphenylcarbamoyl)-1,2,3,4-tetrahydro-9H-pyido[3,4-b]indole-3-carboxyl]glycyl-L-aspartic acid amide]
20 µM | O=C(Nc1ccccc1C(=O)N1CCCC1)[C@@H]1Cc2c([nH]c3ccccc23)CN1C(=O)OCc1ccccc1 [Example 19, pyrrolidine-2-N-[(3S)-2-carbobenzoxy-1,2,3,4-tetrahydro-9H-pyrido[3,4-b]indole-3-carboxyl]aminobenzamide]
24 µM | CC(C)C[C@H](NC(=O)[C@H]1Cc2c([nH]c3ccccc23)CN1C(=O)Nc1ccc(Cl)c(Cl)c1)C(=O)N[C@@H](CC(=O)O)C(N)=O [Example 66]
92 µM | Cc1cccc(NC(=O)N2Cc3[nH]c4ccccc4c3C[C@@H]2C(=O)N[C@@H](CC(C)C)C(=O)N[C@@H](CC(N)=O)C(=O)O)c1 [Example 50]
62 µM | O=C(NC(c1ccccc1)c1ccccc1)[C@H]1Cc2c([nH]c3ccccc23)CN1 [Example 6, (3R)-3-diphenylmethylcarbamoyl-1,2,3,4-tetrahydro-9H-pyrido[3,4-b]indole]
100 µM | Cc1cccc(NC(=O)N2Cc3[nH]c4ccccc4c3C[C@@H]2C(=O)N[C@H](CC(C)C)C(=O)N[C@@H](CC(=O)O)C(N)=O)c1 [Example 57, N-[(3R)-2-(3-methylphenylcarbamoyl)-1,2,3,4-tetrahydro-9H-pyrido[3,4-b]indole-3-carboxyl]-D-leucyl-L-aspartic acid amide]
100 µM | NC(=O)[C@H](CC(=O)O)NC(=O)C1(NC(=O)[C@H]2Cc3c([nH]c4ccccc34)CN2C(=O)Nc2ccc(Cl)c(Cl)c2)CCCC1 [Example 26]
> 100 µM | COc1cccc(NC(=O)N2Cc3[nH]c4ccccc4c3C[C@@H]2C(=O)N[C@@H](CC(C)C)C(=O)N[C@@H](CC(=O)O)C(N)=O)c1 [Example 61]
9 µM | CC(C)C[C@H](NC(=O)[C@H]1Cc2c([nH]c3ccccc23)CN1C(=O)Nc1ccc(Cl)c(Cl)c1)C(=O)NCC(N)=O [Example 28]
29 µM | Cc1cccc(NC(=O)N2Cc3[nH]c4ccccc4c3C[C@@H]2C(=O)N[C@@H](COCc2ccccc2)C(=O)N[C@@H](CC(=O)O)C(N)=O)c1 [Example 64]
98 µM | Cc1cccc(NC(=O)N2Cc3[nH]c4ccccc4c3C[C@@H]2C(=O)N2CCC[C@H]2C(=O)N[C@@H](CC(=O)O)C(N)=O)c1 [Example 44, N-[(3R)-2-(3-methylphenylcarbamoyl)-1,2,3,4-tetrahydro-9H-pyrido[3,4-b]indole-3-carboxyl]-L-prolyl-L-aspartic acid amide]
37 µM | CCOC(=O)c1ccc(NC(=O)[C@H]2Cc3c([nH]c4ccccc34)CN2C(=O)Nc2cccc(C)c2)cc1 [Example 43]
> 10 µM | CCOC(=O)c1ccccc1NC(=O)[C@H]1Cc2c([nH]c3ccccc23)CN1C(=O)OCc1ccccc1 [Example 17]
10 µM | CCCCCN(CCCCC)C(=O)[C@H]1Cc2c([nH]c3ccccc23)CN1C(=O)Nc1cccc(C)c1 [Example 13, (3R)-3-(N,N-dipentylcarbamoyl)-2-(3-methylphenylcarbamoyl)-1,2,3,4-tetrahydro-9H-pyrido[3,4-b]indole]
3.9 µM | CCCCCN(CCCCC)C(=O)[C@H](CC(=O)O)NC(=O)[C@H]1Cc2c([nH]c3ccccc23)CN1C(=O)Nc1cccc(C)c1 [Example 46, N-[(3R)-2-(3-methylphenylcarbamoyl)-1,2,3,4-tetrahydro-9H-pyrido[3,4-b]indole-3-carboxyl]-L-aspartic acid dipentyl amide]
> 100 µM | CC(C)C[C@H](NC(=O)[C@H]1Cc2c([nH]c3ccccc23)CN1C(=O)Nc1cccc(F)c1)C(=O)N[C@@H](CC(=O)O)C(N)=O [Example 65]
> 100 µM | Cc1cccc(C(=O)N2Cc3[nH]c4ccccc4c3C[C@@H]2C(=O)N[C@@H](CC(C)C)C(=O)N[C@@H](CC(=O)O)C(N)=O)c1 [Example 54]
34 µM | CC(C)C[C@H](NC(=O)[C@H]1Cc2c([nH]c3ccccc23)CN1C(=O)Nc1cc(Cl)cc(Cl)c1)C(=O)N[C@@H](CC(=O)O)C(N)=O [Example 59, N-[(3R)-2-(3,5-dichlorophenylcarbamoyl)-1,2,3,4-tetrahydro-9H-pyrido[3,4-b]indole-3-carboxyl]-L-leucyl-L-aspartic acid amide]
34 µM | Cc1cccc(NC(=O)N2Cc3[nH]c4ccccc4c3C[C@@H]2C(=O)N[C@@H](CC(C)C)C(=O)N[C@@H](CC(=O)O)C(N)=O)c1 [Example 11, N-[(3R)-2-(3-methylphenylcarbamoyl)-1,2,3,4-tetrahydro-9H-pyrido[3,4-b]indole-3-carboxyl]-L-leucyl-L-aspartic acid amide]
